In PubChem BioAssay AID1963961 (Molecular Pharmacology Branch, DTP, NCI, 2024):

Test system: K98450-129-R-PDC multicell spheroids, viability
Experiment: Anticancer human tumor K98450-129-R-PDC patient-derived colon adenocarcinoma cell line growth inhibition [PI3K]
Conditions: for IC50: curve of first compound; for viability, T/C: stronger effect = lower value
How it was run: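 Tumor cells grown as multi-cell spheroids with HUVEC endothelial cells and MSC fibroblast-like stroma were treated with targeted agents combined with inavolisib, alpelisib, duvelisib or copanlisib. Doses fell in half-log steps from near clinical Cmax, else from 10 microM. Viability was measured.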

[1] = second compound 0.00316 µM, first compound 0.0316 µM
[2] = second compound 0.00316 µM, first compound 0.1 µM
[3] = second compound 0.01 µM, first compound 0.0316 µM
[4] = second compound 0.01 µM, first compound 0.1 µM
[5] = second compound 0.0316 µM, first compound 0.0316 µM
[6] = second compound 0.0316 µM, first compound 0.1 µM
[7] = second compound 0.1 µM, first compound 0.0316 µM
[8] = second compound 0.1 µM, first compound 0.1 µM
[9] = second compound 0.316 µM, first compound 0.0316 µM
[10] = second compound 0.316 µM, first compound 0.1 µM
[11] = second compound 1 µM, first compound 0.0316 µM
[12] = second compound 1 µM, first compound 0.1 µM
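Note: spheroids exposed to agents for seven days before read-out.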

## CC(C)NCC(C(=O)N1CCN(c2ncnc3c2C(C)CC3O)CC1)c1ccc(Cl)cc1 (centres undefined) + COc1c(OCCCN2CCOCC2)ccc2c3n(c(=NC(=O)c4cnc(N)nc4)nc12)CCN3
Second compound 0.00316 µM
  IC50: > 10000 nM
Second compound 0.01 µM
  IC50: > 10000 nM
Second compound 0.0316 µM
  IC50: > 10000 nM
Second compound 0.1 µM
  IC50: > 10000 nM
Second compound 0.316 µM
  IC50: > 10000 nM
Second compound 1 µM
  IC50: > 10000 nM
[1]
  viability, T/C: 107%
[2]
  viability, T/C: 95.9%
Second compound 0.00316 µM, first compound 0.316 µM
  viability, T/C: 115%
Second compound 0.00316 µM, first compound 1 µM
  viability, T/C: 99%
Second compound 0.00316 µM, first compound 3.16 µM
  viability, T/C: 97.4%
Second compound 0.00316 µM, first compound 10 µM
  viability, T/C: 89.8%
[3]
  viability, T/C: 111%
[4]
  viability, T/C: 106%
Second compound 0.01 µM, first compound 0.316 µM
  viability, T/C: 99.3%
Second compound 0.01 µM, first compound 1 µM
  viability, T/C: 98.8%
Second compound 0.01 µM, first compound 3.16 µM
  viability, T/C: 90.6%
Second compound 0.01 µM, first compound 10 µM
  viability, T/C: 93.3%
[5]
  viability, T/C: 94%
[6]
  viability, T/C: 114%
Second compound 0.0316 µM, first compound 0.316 µM
  viability, T/C: 88.4%
Second compound 0.0316 µM, first compound 1 µM
  viability, T/C: 95.1%
Second compound 0.0316 µM, first compound 3.16 µM
  viability, T/C: 89.8%
Second compound 0.0316 µM, first compound 10 µM
  viability, T/C: 86.2%
[7]
  viability, T/C: 79%
[8]
  viability, T/C: 66.4%
Second compound 0.1 µM, first compound 0.316 µM
  viability, T/C: 67%
Second compound 0.1 µM, first compound 1 µM
  viability, T/C: 73.7%
Second compound 0.1 µM, first compound 3.16 µM
  viability, T/C: 95.4%
Second compound 0.1 µM, first compound 10 µM
  viability, T/C: 82.9%
[9]
  viability, T/C: 69.5%
[10]
  viability, T/C: 73.8%
Second compound 0.316 µM, first compound 0.316 µM
  viability, T/C: 58.7%
Second compound 0.316 µM, first compound 1 µM
  viability, T/C: 65.2%
Second compound 0.316 µM, first compound 3.16 µM
  viability, T/C: 68.9%
Second compound 0.316 µM, first compound 10 µM
  viability, T/C: 66.3%
[11]
  viability, T/C: 54.1%
[12]
  viability, T/C: 49.3%
Second compound 1 µM, first compound 0.316 µM
  viability, T/C: 55.6%
Second compound 1 µM, first compound 1 µM
  viability, T/C: 45.2%
Second compound 1 µM, first compound 3.16 µM
  viability, T/C: 59.7%
Second compound 1 µM, first compound 10 µM
  viability, T/C: 47.5%

## CC(=O)c1c(C)c2cnc(Nc3ccc(N4CCNCC4)cn3)nc2n(C2CCCC2)c1=O + COc1c(OCCCN2CCOCC2)ccc2c3n(c(=NC(=O)c4cnc(N)nc4)nc12)CCN3
Second compound 0.00316 µM
  IC50: > 100 nM
Second compound 0.01 µM
  IC50: > 100 nM
Second compound 0.0316 µM
  IC50: > 100 nM
Second compound 0.1 µM
  IC50: > 100 nM
Second compound 0.316 µM
  IC50: > 100 nM
Second compound 1 µM
  IC50: 46 nM
Second compound 0.00316 µM, first compound 0.000316 µM
  viability, T/C: 114%
Second compound 0.00316 µM, first compound 0.001 µM
  viability, T/C: 119%
Second compound 0.00316 µM, first compound 0.00316 µM
  viability, T/C: 93.7%
Second compound 0.00316 µM, first compound 0.01 µM
  viability, T/C: 90.5%
[1]
  viability, T/C: 101%
[2]
  viability, T/C: 95.8%
Second compound 0.01 µM, first compound 0.000316 µM
  viability, T/C: 109%
Second compound 0.01 µM, first compound 0.001 µM
  viability, T/C: 101%
Second compound 0.01 µM, first compound 0.00316 µM
  viability, T/C: 97.3%
Second compound 0.01 µM, first compound 0.01 µM
  viability, T/C: 91.1%
[3]
  viability, T/C: 98.1%
[4]
  viability, T/C: 92.4%
Second compound 0.0316 µM, first compound 0.000316 µM
  viability, T/C: 85.7%
Second compound 0.0316 µM, first compound 0.001 µM
  viability, T/C: 96.7%
Second compound 0.0316 µM, first compound 0.00316 µM
  viability, T/C: 97.3%
Second compound 0.0316 µM, first compound 0.01 µM
  viability, T/C: 87.6%
[5]
  viability, T/C: 86.5%
[6]
  viability, T/C: 70.4%
Second compound 0.1 µM, first compound 0.000316 µM
  viability, T/C: 78.9%
Second compound 0.1 µM, first compound 0.001 µM
  viability, T/C: 81.1%
Second compound 0.1 µM, first compound 0.00316 µM
  viability, T/C: 74.3%
Second compound 0.1 µM, first compound 0.01 µM
  viability, T/C: 67%
[7]
  viability, T/C: 79.3%
[8]
  viability, T/C: 72.1%
Second compound 0.316 µM, first compound 0.000316 µM
  viability, T/C: 59%
Second compound 0.316 µM, first compound 0.001 µM
  viability, T/C: 68.7%
Second compound 0.316 µM, first compound 0.00316 µM
  viability, T/C: 65.7%
Second compound 0.316 µM, first compound 0.01 µM
  viability, T/C: 58.2%
[9]
  viability, T/C: 70%
[10]
  viability, T/C: 56.1%
Second compound 1 µM, first compound 0.000316 µM
  viability, T/C: 62%
Second compound 1 µM, first compound 0.001 µM
  viability, T/C: 48.5%
Second compound 1 µM, first compound 0.00316 µM
  viability, T/C: 51.6%
Second compound 1 µM, first compound 0.01 µM
  viability, T/C: 57.7%
[11]
  viability, T/C: 57.8%
[12]
  viability, T/C: 38.8%
